pEC50: −log10 of the molar value.
Columns and labels:
Plasmodium falciparum [1] = test: NOVARTIS: Inhibition of Plasmodium falciparum 3D7 (drug-susceptible) proliferation in erythrocyte-based infection assay; type: functional, organism-based; details: Plasmodium falciparum, 3D7
Plasmodium falciparum [2] = test: NOVARTIS: Inhibition of Plasmodium falciparum W2 (drug-resistant) proliferation in erythrocyte-based infection assay; type: functional, organism-based; details: Plasmodium falciparum, W2; read-out: EC50
[3] = NOVARTIS: Cytotoxicity against human hepatocellular carcinoma cell line (Huh7); type: toxicity, cell-based, Huh-7; details: Huh7 cells (hepatocellular carcinoma cell line)

Compound CCN1CCC(N2C[C@H](n3cc(C(=O)OC)nn3)C[C@H]2C(=O)NCc2cccc(C(F)(F)F)c2)CC1 has a pEC50 (Plasmodium falciparum [1]) of under 5.90, a pEC50 (Plasmodium falciparum [2]) of under 6.25 and a CC50 [3] of over 10 µM.

CN(C)CCCNc1cc(-c2ccccc2)nc2ccccc12 gave a pEC50 (Plasmodium falciparum [1]) of 6.91, a pEC50 (Plasmodium falciparum [2]) of 5.29 and a CC50 [3] of 18.6 µM.

C/C=C1/C[C@H]2[C@@H](OC)Nc3cc(O)c(OC)cc3C(=O)N2C1 gave a pEC50 (Plasmodium falciparum [1]) of 5.99, a pEC50 (Plasmodium falciparum [2]) of 6.06 and a CC50 [3] of 8.49 µM.

In the case of C=CC[n+]1ccc(/C=C/c2ccccc2)c(C)c1, the pEC50 (Plasmodium falciparum [1]) was 6.18, the pEC50 (Plasmodium falciparum [2]) was 6.25 and the CC50 [3] was over 10 µM.

COc1cccc(CC2(CO)CCCN(Cc3sc(N4CCCC4)nc3Cl)C2)c1 (stereo not given) showed a pEC50 (Plasmodium falciparum [1]) of under 4.90, a pEC50 (Plasmodium falciparum [2]) of under 5.21 and a CC50 [3] of over 100 µM.

Work on CN1CCC(N2CCC(Oc3cccc(C(=O)NCCC4=CCCCC4)c3)CC2)CC1 yielded a pEC50 (Plasmodium falciparum [1]) of 6.11, a pEC50 (Plasmodium falciparum [2]) of 6.03 and a CC50 [3] of 20.7 µM.

Work on COc1cc(NC(C)CCCN(Cc2ccc(N(C)C)cc2)S(=O)(=O)c2cccc3ccccc23)c2ncccc2c1 (stereo not given) yielded a pEC50 (Plasmodium falciparum [1]) of 6.09, a pEC50 (Plasmodium falciparum [2]) of 6.19 and a CC50 [3] of over 13.9 µM.

With Cn1nc(C(=O)N2CCc3ccccc3C2)c2c1CCC(N1CCN(Cc3cccc(F)c3)CC1)C2 (stereo not given) the pEC50 (Plasmodium falciparum [1]) was 6.32, the pEC50 (Plasmodium falciparum [2]) was 6.66 and the CC50 [3] was 8.02 µM.

With Cc1cc(S(=O)(=O)N2CCN(Cc3ccccc3)CC2)ccc1-n1cnnn1 the pEC50 (Plasmodium falciparum [1]) was 6.14, the pEC50 (Plasmodium falciparum [2]) was 5.85 and the CC50 [3] was over 10 µM.

For CCOC(=O)C1=C(C)N(CCNc2ncc(C(F)(F)F)cc2Cl)C(=O)CC1, the pEC50 (Plasmodium falciparum [1]) was 5.12, the pEC50 (Plasmodium falciparum [2]) was 5.08 and the CC50 [3] was over 100 µM.

For COc1ccc(-c2c[n+](CC(=O)c3ccc(C)cc3)c3n2CCC3)cc1, the pEC50 (Plasmodium falciparum [1]) was 6.13, the pEC50 (Plasmodium falciparum [2]) was 6.70 and the CC50 [3] was over 100 µM.

COc1cc(NC(C)CCCN(Cc2ccc(OC)c(OC)c2)C(=O)c2ccc3ccccc3c2)c2ncccc2c1 (stereo not given) showed a pEC50 (Plasmodium falciparum [1]) of 6.39, a pEC50 (Plasmodium falciparum [2]) of 6.61 and a CC50 [3] of 5.33 µM.

O=C(NCc1cccnc1)[C@@H]1C[C@H](NC2CCN(CCc3ccccc3)CC2)CN1Cc1ccc(Cl)cc1 showed a pEC50 (Plasmodium falciparum [1]) of 7.05, a pEC50 (Plasmodium falciparum [2]) of 6.23 and a CC50 [3] of 18.5 µM.

Compound CCCCCc1ccc(C(=O)N(C)CCCNc2ccnc3cc(Cl)ccc23)cc1 has a pEC50 (Plasmodium falciparum [1]) of 6.60, a pEC50 (Plasmodium falciparum [2]) of 6.51 and a CC50 [3] of 15.1 µM.

Compound CC(Cc1ccsc1)Nc1nc2nonc2nc1N(C)C (stereo not given) has a pEC50 (Plasmodium falciparum [1]) of 6.09, a pEC50 (Plasmodium falciparum [2]) of 6.06 and a CC50 [3] of over 100 µM.

Work on CC(C)CC(=O)OC1C(N2CCCCC2)c2c(ccc(C=CC(=O)N3CCCCC3)c2O)OC1(C)C (stereo not given) yielded a pEC50 (Plasmodium falciparum [1]) of 5.58, a pEC50 (Plasmodium falciparum [2]) of under 4.91 and a CC50 [3] of over 100 µM.

COc1ccc(CC(=O)NCCCCNc2ccnc3cc(Cl)ccc23)cc1 showed a pEC50 (Plasmodium falciparum [1]) of 6.26, a pEC50 (Plasmodium falciparum [2]) of 6.46 and a CC50 [3] of 4.5 µM.

CCOC(=O)C1=C(CC)NC2=C(C(=O)CCC2)C1c1ccc(OC)c(Br)c1 (stereo not given) gave a pEC50 (Plasmodium falciparum [1]) of 5.97, a pEC50 (Plasmodium falciparum [2]) of 6.41 and a CC50 [3] of over 83.8 µM.

c1csc(CN2CCc3nc(N4CCCCC4)sc3C2)c1 showed a pEC50 (Plasmodium falciparum [1]) of 5.90, a pEC50 (Plasmodium falciparum [2]) of 6.35 and a CC50 [3] of over 10 µM.

Compound COc1ccccc1NC(=S)N1CCN(c2ccc([N+](=O)[O-])cc2)CC1 has a pEC50 (Plasmodium falciparum [1]) of 6.24, a pEC50 (Plasmodium falciparum [2]) of 6.95 and a CC50 [3] of over 100 µM.

With CCc1n(C)c2ccccc2[n+]1CC(=O)c1ccc(Br)cc1 the pEC50 (Plasmodium falciparum [1]) was 5.78, the pEC50 (Plasmodium falciparum [2]) was 5.96 and the CC50 [3] was over 10 µM.

Work on CN(C)CCNc1cc(-c2cccc(C(F)(F)F)c2)nc(-c2ccncc2)n1 yielded a pEC50 (Plasmodium falciparum [1]) of under 5.90, a pEC50 (Plasmodium falciparum [2]) of 5.77 and a CC50 [3] of over 10 µM.

O=C(O)c1ccc2c(c1)N=C(c1ccccc1)N(Cc1cccnc1)C2 showed a pEC50 (Plasmodium falciparum [1]) of 6.32, a pEC50 (Plasmodium falciparum [2]) of 7.18 and a CC50 [3] of over 10 µM.

Work on Nc1nc(N)c2nc(CCc3ccc(C(=O)N[C@H](CCC(=O)O)C(=O)O)cc3)cnc2n1 yielded a pEC50 (Plasmodium falciparum [1]) of 7.53, a pEC50 (Plasmodium falciparum [2]) of 8.75 and a CC50 [3] of 0.0081 µM.

With CCOC(=O)c1cnn(-c2ccnc3cc(Cl)ccc23)c1CNC(C)c1cccs1 (stereo not given) the pEC50 (Plasmodium falciparum [1]) was under 5.81, the pEC50 (Plasmodium falciparum [2]) was under 6.03 and the CC50 [3] was over 10 µM.

For Cc1nc(-c2ccccn2)nc(NCCc2ccccc2)c1Cl, the pEC50 (Plasmodium falciparum [1]) was 5.90, the pEC50 (Plasmodium falciparum [2]) was 5.82 and the CC50 [3] was over 10 µM.

Compound Cc1ccc(N=Nc2nc3ccccc3n2C)c(C)c1 has a pEC50 (Plasmodium falciparum [1]) of 7.06, a pEC50 (Plasmodium falciparum [2]) of 7.62 and a CC50 [3] of 3.6 µM.

Cn1nc(C(F)(F)F)c(-c2ccc(F)cc2)c1NC(=O)Nc1ccc(F)cc1F gave a pEC50 (Plasmodium falciparum [1]) of 6.54, a pEC50 (Plasmodium falciparum [2]) of 6.35 and a CC50 [3] of 29.2 µM.

Compound N#Cc1ccc(CNC(=S)Nc2cc(Cl)ccc2Cl)cc1 has a pEC50 (Plasmodium falciparum [1]) of 6.38, a pEC50 (Plasmodium falciparum [2]) of 6.62 and a CC50 [3] of over 100 µM.

In the case of CCOC(=O)C1(CC)CC(C)(C(=O)C[n+]2cccc(Br)c2)OC1=O (stereo not given), the pEC50 (Plasmodium falciparum [1]) was 6.39, the pEC50 (Plasmodium falciparum [2]) was 6.20 and the CC50 [3] was over 10 µM.

CC(C)Nc1nc(-c2cccnc2)nc2ccccc12 gave a pEC50 (Plasmodium falciparum [1]) of under 6.08, a pEC50 (Plasmodium falciparum [2]) of under 6.02 and a CC50 [3] of over 10 µM.

CN1CCN(c2c3c(c(C#N)c4nc5ccccc5n24)CCC3)CC1 gave a pEC50 (Plasmodium falciparum [1]) of 5.93, a pEC50 (Plasmodium falciparum [2]) of under 5.19 and a CC50 [3] of over 100 µM.

CCCCc1nc(CN2CCC3(CC2)C(=O)N(CCc2ccccc2)C(=O)N3C)c[nH]1 showed a pEC50 (Plasmodium falciparum [1]) of under 4.92, a pEC50 (Plasmodium falciparum [2]) of 5.36 and a CC50 [3] of over 100 µM.

In the case of CC1CCCCN1CCCNc1ncc(C(=O)NCCCN2CCCC2=O)c(NCC2CCCCC2)n1 (stereo not given), the pEC50 (Plasmodium falciparum [1]) was 6.07, the pEC50 (Plasmodium falciparum [2]) was under 5.90 and the CC50 [3] was over 10 µM.

O=[N+]([O-])c1ccc(S(=O)(=O)N2CCN(C(=S)NCCc3ccccc3)CC2)cc1 gave a pEC50 (Plasmodium falciparum [1]) of 7.01, a pEC50 (Plasmodium falciparum [2]) of 7.01 and a CC50 [3] of over 100 µM.

From ChEMBL document CHEMBL1156829 (Proc Natl Acad Sci U S A, 2008)
